Measurements from US20180172678A1, “Dynamic Light Scattering Nanoplatform For High-Throughput Drug Screening” (Agency for Science, Technology and Research, priority 2016, published 2018).
*1 amine or outer side, *2 acyl side, *3 side chain or, on linkers, in order; H or OH if unused. Where a SMILES comes first, the peptide text is derived from it. Bridges are numbered along the chain shown (N, C = ends). Roman numbers before positions name the chains, in order. [ ]: non-standard residue; d: D form. Actinocin(9to1) = Cc1c2oc3c(C)ccc(C(=O)[*:1])c3nc-2c(C(=O)[*:2])c(N)c1=O; NMeV = CN[C@H](C(=O)O)C(C)C; Sar = CNCC(=O)O

B1: ConA: Artificial consensus p53-binding dsDNA sequence; positive control (nucleic acid)
sense: GTTAGAGGGGCATGTCCGGGCATGTCCGGGCAGA
antisense: CAATCTCCCCGTACAGGCCCGTACAGGCCCGTCT
modifications: chemistry not given here; one strand is listed 3' to 5'
notes: positive control

Experiments:
[1] = test system: wildtype p53; assay: DLS detection with PUMA-AuNP nano-dumbbell probes of wtp53-RE binding in anticancer drug treated PonA induced H1299 cell lysates; assay type: cell-based; conditions: drug-treated PonA induced p53 H1299 cell lysate, versus untreated lysate
From the text: To investigate the applicability of the assay in accordance with the present embodiment to cell lysates, the H1299 Ecdysone-Inducible (EI) system for controllable and constitutive expression of p53 in H1299 cells induced by ponasterone A (PonA) was used. Referring to FIG. 7, bar graphs 700, 750 depict cell lysate analysis statistics in accordance with the present embodiment. The bar graph 700 plots size along the y-axis 704 and depicts wildtype p53 cell lysate 710 and three mutant p53 cell lysates: G245S 712, R273H 714 and R175H 716. The p53 null cell lysate (EI) 718, which serves as a negative control, gives negligible size shift from that of the PUMA-AuNP nano-dumbbell probes 720. Remarkably, clear distinctions between cell lysates with wtp53 710 and the DNA contact mutant retaining native structure (R273H) 714, the weakly stabilized mutant (G245S) 712 and the globally denatured mutant (R175H) 716 can be observed in the bar graph 700. Thus, it can be seen from the analytical results in the graph 700 that the bioassay in accordance with the present embodiment is not only sensitive and selective in the context of purified proteins but also applicable to highly complex biological samples.
Referring to FIG. 7B, the bar graph 750 plots size along the y-axis 754 and depicts detection of wildtype p53 in PonA induced p53 cell lysates 760 versus a […] cell lysate (EI) 762 (used together with the PUMA-AuNP nano-dumbbell probes 763 as a negative control), and an anticancer drug including ActD-treated 764, Dox-treated 766, and Etoposide-treated cell lysate 768.

[2] = molecular target: T1, mutant p53 (R175H) (Homo sapiens, UniProt P04637, R175H); assay: Mutant p53 reactivation drug screening in PonA induced H1299 cells, DLS with PUMA-AuNP nano-dumbbell probes; assay type: cell-based
T1 construct: expressed in transfected cells; host or cells: PonA induced H1299 cells
Method: (§1) The ability to clearly distinguish wildtype p53 from mutant p53 in cell lysates provides the potential of the assay in accordance with the present embodiment for screening drugs that can effectively reactivate mutant p53 directly in cells and recovered the biological samples from cell lysates for detection. FIG. 9 depicts a schematic diagram 900 showing the process of mutant reactivation drug screening. Incubation of drug with live cancer cells expressing mutant p53 for reactivation is performed 910 (Step 1). The drug treated cells are then chemically lysed 920 (Step 2). The resultant cell lysates are next subjected 930 to incubation with p53-RE functionalized AuNP nano-dumbbell probes (Step 3). The obtained DLS readout allow evaluation of whether the drug applied has successfully reactivated mutant p53 to restore its binding affinity to RE. Failure in p53 reactivation will give rise to no change in the position of the DLS signal in accordance with the present embodiment.
(§2) Referring back to Step 1, drugs to be tested are first incubated 912 with live cancer cells expressing mutp53 proteins. Drugs are then uptaken 914 by the cells and interact with the mutp53 proteins. The drug treated cancer cells are subsequently lysed at Step 2 (920) to obtain crude cell lysates. These cell lysates are incubated with RE-AuNP probes and DLS is finally employed to evaluate the efficiency of mutp53 reactivation 932. If the reactivation is successful 934, the reactivated p53 protein will have a restored binding toward the RE, thus leading to increase in the diameter of the p53 RE-AuNP probes as measured 936 by DLS. In contrast, failure in reactivation 938 will not restore the binding of mutp53 protein to the RE sequence on the nano-dumbbell probes, thus no change in DLS signal is measured 940. Thus, the bioassay in accordance with the present embodiment is able to evaluate the extent of mutant reactivation by comparing the DLS signal obtained with the wtp53 binding to RE. The effective concentration of drugs for reactivation can also be determined by performing a series of concentration-dependent experiments during cell reactivation
The bar graphs 1000, 1050 plot particle size along the y-axis 1004, 1054 and depict screening of mutant reactivation drugs.

[3] = molecular target: T2, mutant p53 (R273H) (Homo sapiens, UniProt P04637, R273H); assay: as above; assay type: cell-based
T2 construct: expressed in transfected cells; host or cells: PonA induced H1299 cells
Method: as §1, §2
However, the NSC drug has no effect at either low concentrations 1068 or high concentrations 1070 due to its specificity only to R175H mutant.

[4] = test system: wtp53 in HCT116 cells; assay: DLS detection with PUMA-AuNP nano-dumbbell probes of wtp53 expression level in drug treated HCT116 cell lysates; assay type: cell-based; conditions: HCT116 cell lysate after Mdm2 inhibitor treatment, mixed with PUMA-AuNP probes
From the text: Referring to FIG. 8, detection of wtp53 expression level in drug treated HCT116 cell lysates in accordance with the present embodiment is depicted in a bar graph 800. Besides the H1299 Ecdysone-Inducible cell lines, the effect of Mdm2 inhibitors such as nutlin 810, pm2 812, and vip82 814 on HCT116 cells was investigated. These inhibitors could inhibit Mdm2 targeted wtp53 degradation so that the wtp53 protein level in the HCT116 cell lysate will increase with the concentration of the drug applied. […] However, the extent of size increase is not as high as what was observed upon anticancer drug treatment presented. One possible explanation is that PUMA-AuNP nano-dumbbell probes are sensitive to detect activated wtp53 with enhanced binding to RE, whereas the over-expression of wtp53 may not enhance DNA binding.

[5] = molecular target: p53 (Homo sapiens, UniProt P04637); assay: Dissociation constant (KD) of p53 for DNA promoter sequences (Table 1); assay type: binding; conditions: concentration of p53 for 50% of the DNA to be bound; free dsDNA sequence
From the text: As aforestated, the p53 protein is a transcription factor which will bind specifically to DNA that contains RE sequences. In nature, wildtype p53 protein will bind to many promoter sequences and subsequently activate a wide range of genes for DNA repair, cell cycle arrest, apoptosis and its own degradation. As shown hereinabove, the bioassay in accordance with the present embodiment can be used for DNA selectivity study by conjugating different RE sequences to the AuNPs. However, it would be technically tedious to carry out conjugation for each DNA sequence and then screen for the binding affinity of a large number of promoter sequences. Therefore, a convenient competition assay which requires only one set of p53 RE-linked AuNPs has been designed in accordance with the present embodiment to evaluate the binding affinity of p53 protein to various promoter sequences listed in Table 1. This competition assay further allows the identification of the specific downstream pathway that is triggered upon p53 activation or reactivation, providing crucial information on the drug validation and outcome of the drug action.
The dissociation constant (KD) is defined as the concentration of p53 for 50% of the DNA to be bound. The lower the KD value, the stronger the binding affinity between wtp53 and the tested free DNA sequence. Thus, a smaller change in the size of the complex bound probes is expected due to the competitive binding of wtp53 between the free DNAs and conjugated RE sequences on AuNPs. […] Application of this assay to the activated or reactivated p53 proteins enables determination of which promoter sequence binds strongly and consequently identifies its downstream targets (apoptosis, cell cycle arrest or DNA repair).

[6] = high concentrations (++): COTI-2 1 μM, Prima-1^met 20 μM, NSC 3 μM
[7] = low concentrations (+): NSC 0.3 μM

| Molecule | activation of wtp53 binding to the RE (DLS particle diameter of PUMA-AuNP probes) [1] | reactivation of mutant p53 (R175H) to bind with PUMA-AuNP probes [2, 6] | reactivation of mutant p53 (R175H) to bind with PUMA-AuNP probes [2, 7] | reactivation of mutant p53 (R273H) to bind with PUMA-AuNP probes [3, 6] | reactivation of mutant p53 (R273H) to bind with PUMA-AuNP probes [3, 7] | Kd [5] [nM] | further results |
| --- | --- | --- | --- | --- | --- | --- | --- |
| Cc1c2oc3c(C)ccc(C(=O)N[C@@H]4C(=O)N[C@H](C(C)C)C(=O)N5CCC[C@H]5C(=O)N(C)CC(=O)N(C)[C@@H](C(C)C)C(=O)O[C@@H]4C)c3nc-2c(C(=O)N[C@@H]2C(=O)N[C@H](C(C)C)C(=O)N3CCC[C@H]3C(=O)N(C)CC(=O)N(C)[C@@H](C(C)C)C(=O)O[C@@H]2C)c(N)c1=O [ActD, actinomycin D] (I: T[dV]P[Sar][NMeV] / II: T[dV]P[Sar][NMeV]; ester I:1-I:C, II:1-II:C; linker I:N-II:N via Actinocin(9to1)) | larger diameter | – | – | – | – | – | – |
| S=C(N/N=C1\CCCc2cccnc21)N1CCN(c2ccccn2)CC1 [COTI-2] | – | successful reactivation | not at low concentrations | successful reactivation | not at low concentrations | – | – |
| COc1cccc2c1C(=O)c1c(O)c3c(c(O)c1C2=O)C[C@@](O)(C(=O)CO)C[C@@H]3O[C@H]1C[C@H](N)[C@H](O)[C@H](C)O1 [Dox, doxorubicin] | larger diameter | – | – | – | – | – | – |
| COc1cc([C@@H]2c3cc4c(cc3[C@@H](O[C@@H]3O[C@@H]5CO[C@@H](C)O[C@H]5[C@H](O)[C@H]3O)[C@H]3COC(=O)[C@H]23)OCO4)cc(OC)c1O [Etoposide, etoposide] | larger diameter | – | – | – | – | – | – |
| CC(=NNC(=S)N1CC2CCC(CC2)C1)c1ccccn1 [NSC] | – | shows effect | shows effect | no effect | no effect | – | – |
| COCC1(CO)C(=O)C2CCN1CC2 (stereo not shown) [Prima-1^met] | – | successful reactivation | not at low concentrations | successful reactivation | not at low concentrations | – | – |
| COc1ccc(C2=NC(c3ccc(Cl)cc3)C(c3ccc(Cl)cc3)N2C(=O)N2CCNC(=O)C2)c(OC(C)C)c1 (stereo not shown) [nutlin] | – | – | – | – | – | – | wtp53 level in cell lysate detected by DLS size increase [4]: increased wtp53 level |
| Bax a: p53 promoter dsDNA sequence, gene function apoptosis (sense TCATTCACAAGTTAGAGACAAGCCTAGCTC; antisense GAGCTAGGCTTGTCTCTAACTTGTGAATGA; DNA, backbone not given here) | – | – | – | – | – | 73 ± 33 | – |
| GADD45: p53 promoter dsDNA sequence, gene function DNA repair (sense ATCATGAACATGTCTAAGCATGCTGAGCTC; antisense GAGCTCAGCATGCTTAGACATGTTCATGAT; DNA, backbone not given here) | – | – | – | – | – | 7.7 ± 1.2 | – |
| B1 | – | – | – | – | – | 3 | – |
